In PubChem BioAssay (NCI):
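48-hour exposure; five concentrations; linearly interpolated endpoints. The concentration for full growth arrest is given as TGI.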

Legend:
Assay in all cases: NCI anticancer screen, dose series, 48 h
MCF7 breast = system: MCF7 breast
NCI-H226 lung = system: NCI-H226 lung
MALME-3M melanoma = system: MALME-3M melanoma
U251 CNS = system: U251 CNS
EKVX NSCLC = system: EKVX NSCLC
SK-MEL-5 melanoma = system: SK-MEL-5 melanoma
HT29 colon = system: HT29 colon
ACHN renal = system: ACHN renal
M14 melanoma = system: M14 melanoma
786-0 renal = system: 786-0 renal
NCI-H460 lung = system: NCI-H460 lung
SN12C renal = system: SN12C renal
NCI-H23 lung = system: NCI-H23 lung
KM12 colon = system: KM12 colon
PC-3 prostate = system: PC-3 prostate
SK-OV-3 ovarian = system: SK-OV-3 ovarian
TK-10 renal = system: TK-10 renal
SW-620 colon = system: SW-620 colon
OVCAR-4 ovarian = system: OVCAR-4 ovarian
SK-MEL-2 melanoma = system: SK-MEL-2 melanoma
OVCAR-8 ovarian = system: OVCAR-8 ovarian
NCI/ADR-RES ovarian = system: NCI/ADR-RES ovarian
NCI-H522 lung = system: NCI-H522 lung
SF-268 CNS = system: SF-268 CNS
OVCAR-3 ovarian = system: OVCAR-3 ovarian
RPMI-8226 leukemia = system: RPMI-8226 leukemia
SR leukemia = system: SR leukemia
SF-539 CNS = system: SF-539 CNS
T-47D breast = system: T-47D breast
HOP-62 NSCLC = system: HOP-62 NSCLC
MOLT-4 leukemia = system: MOLT-4 leukemia
SK-MEL-28 melanoma = system: SK-MEL-28 melanoma
MDA-MB-435 = system: MDA-MB-435
HCC-2998 colon = system: HCC-2998 colon
UACC-257 melanoma = system: UACC-257 melanoma
LOX IMVI melanoma = system: LOX IMVI melanoma
CAKI-1 renal = system: CAKI-1 renal
IGROV1 ovarian = system: IGROV1 ovarian
BT-549 breast = system: BT-549 breast
A549 NSCLC = system: A549 NSCLC
SNB-19 CNS = system: SNB-19 CNS
CCRF-CEM leukemia = system: CCRF-CEM leukemia
COLO 205 colon = system: COLO 205 colon
MDA-MB-231 breast = system: MDA-MB-231 breast
HCT-116 colon = system: HCT-116 colon
HS 578T breast = system: HS 578T breast
MDA-N = system: MDA-N
SF-295 CNS = system: SF-295 CNS
OVCAR-5 ovarian = system: OVCAR-5 ovarian
HCT-15 colon = system: HCT-15 colon
UO-31 renal = system: UO-31 renal
K-562 leukemia = system: K-562 leukemia
SNB-75 CNS = system: SNB-75 CNS
UACC-62 melanoma = system: UACC-62 melanoma
RXF 393 renal = system: RXF 393 renal
HOP-92 NSCLC = system: HOP-92 NSCLC
A498 renal = system: A498 renal
HL-60(TB) leukemia = system: HL-60(TB) leukemia
DU-145 prostate = system: DU-145 prostate

SMILES: CC1=CC(O)(c2ccccc2)C(N2CCOCC2)N1O (stereo not drawn)
- TGI (MCF7 breast): > 100 µM
- TGI (NCI-H226 lung): > 100 µM
- TGI (MALME-3M melanoma): > 100 µM
- TGI (U251 CNS): > 100 µM
- TGI (EKVX NSCLC): > 100 µM
- TGI (SK-MEL-5 melanoma): > 100 µM
- TGI (HT29 colon): > 100 µM
- TGI (ACHN renal): > 100 µM
- TGI (M14 melanoma): > 100 µM
- TGI (786-0 renal): > 100 µM
- TGI (NCI-H460 lung): > 100 µM
- TGI (SN12C renal): > 100 µM
- TGI (NCI-H23 lung): > 100 µM
- TGI (KM12 colon): > 100 µM
- TGI (PC-3 prostate): > 100 µM
- TGI (SK-OV-3 ovarian): > 100 µM
- TGI (TK-10 renal): > 100 µM
- TGI (SW-620 colon): > 100 µM
- TGI (OVCAR-4 ovarian): > 100 µM
- TGI (SK-MEL-2 melanoma): > 100 µM
- TGI (OVCAR-8 ovarian): > 100 µM
- TGI (NCI/ADR-RES ovarian): > 100 µM
- TGI (NCI-H522 lung): > 100 µM
- TGI (SF-268 CNS): > 100 µM
- TGI (OVCAR-3 ovarian): > 100 µM
- TGI (RPMI-8226 leukemia): > 100 µM
- TGI (SR leukemia): > 100 µM
- TGI (SF-539 CNS): > 100 µM
- TGI (T-47D breast): > 100 µM
- TGI (HOP-62 NSCLC): > 100 µM
- TGI (MOLT-4 leukemia): > 100 µM
- TGI (SK-MEL-28 melanoma): > 100 µM
- TGI (MDA-MB-435): > 100 µM
- TGI (HCC-2998 colon): > 100 µM
- TGI (UACC-257 melanoma): > 100 µM
- TGI (LOX IMVI melanoma): > 100 µM
- TGI (CAKI-1 renal): > 100 µM
- TGI (IGROV1 ovarian): > 100 µM
- TGI (BT-549 breast): > 100 µM
- TGI (A549 NSCLC): > 100 µM
- TGI (SNB-19 CNS): > 100 µM
- TGI (CCRF-CEM leukemia): > 100 µM
- TGI (COLO 205 colon): > 100 µM
- TGI (MDA-MB-231 breast): > 100 µM
- TGI (HCT-116 colon): > 100 µM
- TGI (HS 578T breast): > 100 µM
- TGI (MDA-N): > 100 µM
- TGI (SF-295 CNS): > 100 µM
- TGI (OVCAR-5 ovarian): > 100 µM
- TGI (HCT-15 colon): > 100 µM
- TGI (UO-31 renal): > 100 µM
- TGI (K-562 leukemia): > 100 µM

SMILES: Cc1cc2nc(N3C(=O)/C(=C/c4ccc(Oc5ccccc5)cc4)N=C3c3ccccc3)sc2cc1C
- TGI (MCF7 breast): > 100 µM
- TGI (SNB-75 CNS): > 100 µM
- TGI (MALME-3M melanoma): > 100 µM
- TGI (UACC-62 melanoma): > 100 µM
- TGI (RXF 393 renal): > 100 µM
- TGI (U251 CNS): > 100 µM
- TGI (EKVX NSCLC): > 100 µM
- TGI (HOP-92 NSCLC): > 100 µM
- TGI (SK-MEL-5 melanoma): > 100 µM
- TGI (HT29 colon): > 100 µM
- TGI (ACHN renal): > 100 µM
- TGI (M14 melanoma): > 100 µM
- TGI (786-0 renal): > 100 µM
- TGI (NCI-H460 lung): > 100 µM
- TGI (SN12C renal): > 100 µM
- TGI (NCI-H23 lung): > 100 µM
- TGI (KM12 colon): > 100 µM
- TGI (PC-3 prostate): > 100 µM
- TGI (SK-OV-3 ovarian): > 100 µM
- TGI (TK-10 renal): > 100 µM
- TGI (SW-620 colon): > 100 µM
- TGI (A498 renal): > 100 µM
- TGI (OVCAR-4 ovarian): > 100 µM
- TGI (SK-MEL-2 melanoma): 71.6 µM
- TGI (OVCAR-8 ovarian): > 100 µM
- TGI (NCI/ADR-RES ovarian): 91.6 µM
- TGI (NCI-H522 lung): 80.5 µM
- TGI (SF-268 CNS): > 100 µM
- TGI (OVCAR-3 ovarian): > 100 µM
- TGI (RPMI-8226 leukemia): 86.8 µM
- TGI (HL-60(TB) leukemia): 63.8 µM
- TGI (T-47D breast): > 100 µM
- TGI (HOP-62 NSCLC): > 100 µM
- TGI (MOLT-4 leukemia): > 100 µM
- TGI (SK-MEL-28 melanoma): > 100 µM
- TGI (MDA-MB-435): 83.4 µM
- TGI (HCC-2998 colon): > 100 µM
- TGI (UACC-257 melanoma): > 100 µM
- TGI (LOX IMVI melanoma): > 100 µM
- TGI (CAKI-1 renal): > 100 µM
- TGI (IGROV1 ovarian): > 100 µM
- TGI (BT-549 breast): > 100 µM
- TGI (A549 NSCLC): > 100 µM
- TGI (SNB-19 CNS): > 100 µM
- TGI (CCRF-CEM leukemia): > 100 µM
- TGI (DU-145 prostate): > 100 µM
- TGI (COLO 205 colon): 47.6 µM
- TGI (MDA-MB-231 breast): > 100 µM
- TGI (HCT-116 colon): > 100 µM
- TGI (HS 578T breast): > 100 µM
- TGI (MDA-N): > 100 µM
- TGI (SF-295 CNS): > 100 µM
- TGI (OVCAR-5 ovarian): > 100 µM
- TGI (HCT-15 colon): > 100 µM
- TGI (UO-31 renal): > 100 µM
- TGI (K-562 leukemia): > 100 µM
